Measurements published in the NIST ThermoML archive (doi:10.1016/j.jct.2013.09.024).
± gives the expanded uncertainty stated by the source.

Test: excess molar enthalpy (molar enthalpy of mixing); xn = mol fraction of the nth substance listed
Conditions: 101 kPa, Liquid, Flow calorimetry

CC1(C)C(=O)[C@]2(C)CC[C@H]1C2 [(-)-fenchone] + CCO gave an excess molar enthalpy (283.15 K, x1 = 0.048) of 0.0418 ± 0.00311 kcal/mol, an excess molar enthalpy (283.15 K, x1 = 0.097) of 0.0805 ± 0.00502 kcal/mol and an excess molar enthalpy (283.15 K, x1 = 0.195) of 0.141 ± 0.0086 kcal/mol. The excess molar enthalpy (283.15 K, x1 = 0.286) was 0.184 ± 0.0112 kcal/mol, the excess molar enthalpy (283.15 K, x1 = 0.395) was 0.218 ± 0.0131 kcal/mol and the excess molar enthalpy (283.15 K, x1 = 0.488) was 0.23 ± 0.0139 kcal/mol. It also gave an excess molar enthalpy (283.15 K, x1 = 0.601) of 0.229 ± 0.0139 kcal/mol, an excess molar enthalpy (283.15 K, x1 = 0.701) of 0.21 ± 0.0127 kcal/mol and an excess molar enthalpy (283.15 K, x1 = 0.801) of 0.172 ± 0.0105 kcal/mol. It also gave an excess molar enthalpy (283.15 K, x1 = 0.894) of 0.104 ± 0.00645 kcal/mol, an excess molar enthalpy (283.15 K, x1 = 0.945) of 0.0569 ± 0.00382 kcal/mol and an excess molar enthalpy (298.15 K, x1 = 0.048) of 0.0476 ± 0.00335 kcal/mol. It also gave an excess molar enthalpy (298.15 K, x1 = 0.097) of 0.0913 ± 0.00574 kcal/mol, an excess molar enthalpy (298.15 K, x1 = 0.195) of 0.159 ± 0.0098 kcal/mol and an excess molar enthalpy (298.15 K, x1 = 0.286) of 0.209 ± 0.0127 kcal/mol. For the same compound, the excess molar enthalpy (298.15 K, x1 = 0.395) was 0.249 ± 0.0151 kcal/mol, the excess molar enthalpy (298.15 K, x1 = 0.488) was 0.265 ± 0.016 kcal/mol and the excess molar enthalpy (298.15 K, x1 = 0.601) was 0.262 ± 0.0158 kcal/mol. For the same compound, the excess molar enthalpy (298.15 K, x1 = 0.701) was 0.239 ± 0.0146 kcal/mol, the excess molar enthalpy (298.15 K, x1 = 0.801) was 0.193 ± 0.0117 kcal/mol and the excess molar enthalpy (298.15 K, x1 = 0.894) was 0.12 ± 0.00741 kcal/mol. For the same compound, the excess molar enthalpy (298.15 K, x1 = 0.945) was 0.065 ± 0.00454 kcal/mol, the excess molar enthalpy (313.15 K, x1 = 0.048) was 0.0528 ± 0.00382 kcal/mol and the excess molar enthalpy (313.15 K, x1 = 0.097) was 0.102 ± 0.00645 kcal/mol. The excess molar enthalpy (313.15 K, x1 = 0.195) was 0.178 ± 0.0108 kcal/mol, the excess molar enthalpy (313.15 K, x1 = 0.286) was 0.234 ± 0.0141 kcal/mol and the excess molar enthalpy (313.15 K, x1 = 0.395) was 0.278 ± 0.0167 kcal/mol. For the same compound, the excess molar enthalpy (313.15 K, x1 = 0.488) was 0.297 ± 0.0179 kcal/mol, the excess molar enthalpy (313.15 K, x1 = 0.601) was 0.291 ± 0.0177 kcal/mol and the excess molar enthalpy (313.15 K, x1 = 0.701) was 0.264 ± 0.016 kcal/mol. For the same compound, the excess molar enthalpy (313.15 K, x1 = 0.801) was 0.211 ± 0.0129 kcal/mol, the excess molar enthalpy (313.15 K, x1 = 0.894) was 0.131 ± 0.00813 kcal/mol and the excess molar enthalpy (313.15 K, x1 = 0.945) was 0.071 ± 0.00502 kcal/mol. For the same compound, the excess molar enthalpy (328.15 K, x1 = 0.048) was 0.0586 ± 0.00406 kcal/mol, the excess molar enthalpy (328.15 K, x1 = 0.097) was 0.112 ± 0.00693 kcal/mol and the excess molar enthalpy (328.15 K, x1 = 0.195) was 0.196 ± 0.012 kcal/mol. It also gave an excess molar enthalpy (328.15 K, x1 = 0.286) of 0.258 ± 0.0155 kcal/mol, an excess molar enthalpy (328.15 K, x1 = 0.395) of 0.306 ± 0.0186 kcal/mol and an excess molar enthalpy (328.15 K, x1 = 0.488) of 0.326 ± 0.0198 kcal/mol. The excess molar enthalpy (328.15 K, x1 = 0.601) was 0.318 ± 0.0194 kcal/mol, the excess molar enthalpy (328.15 K, x1 = 0.701) was 0.286 ± 0.0174 kcal/mol and the excess molar enthalpy (328.15 K, x1 = 0.801) was 0.227 ± 0.0139 kcal/mol. The excess molar enthalpy (328.15 K, x1 = 0.894) was 0.14 ± 0.00884 kcal/mol and the excess molar enthalpy (328.15 K, x1 = 0.945) was 0.076 ± 0.00526 kcal/mol.
